In patent US9920040B2, “GPR40 agonists for the treatment of type II diabetes” (Janssen Pharmaceutica NV, priority 2015, dated 2018) one finds EC50 data, which are given here for 22 compounds.

Where “and” joins values, the source holds several entries; their conditions need not be identical. Equal values may be shown once.

For the assay, the target named is T1, human GPR40 (Homo sapiens, UniProt O14842).
T1 construct: expressed in transfected cells
T1 sequence (O14842 whole entry): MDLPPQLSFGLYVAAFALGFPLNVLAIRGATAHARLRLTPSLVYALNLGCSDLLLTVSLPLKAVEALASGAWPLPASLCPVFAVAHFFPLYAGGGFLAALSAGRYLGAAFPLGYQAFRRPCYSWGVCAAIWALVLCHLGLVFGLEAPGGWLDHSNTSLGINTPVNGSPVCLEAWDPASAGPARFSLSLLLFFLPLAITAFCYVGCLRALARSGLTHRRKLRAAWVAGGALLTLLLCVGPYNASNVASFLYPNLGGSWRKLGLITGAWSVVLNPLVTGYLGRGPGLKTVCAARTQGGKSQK
The experiment in a line: GPR40 calcium flux assay, human GPR40. The following applies: transfected HEK293 cells stably expressing human GPR40; multiple values = repeated testing; read-out: hGPR40 Ca^2+ Assay EC50. It is filed as cell-based. The protocol:
Compounds were tested in a calcium flux assay using transfected HEK293 cells stably expressing either human GPR40 or rat GPR40. Human GPR40 expressing cells were cultured in DMEM-High Glucose media supplemented with 10% fetal bovine serum, 1×L-Glutamine, 1×Penicillin/Streptomycin and 500 μg/mL G418. Rat GPR40 expressing cells were cultured in DMEM-High Glucose media supplemented with 10% fetal bovine serum and 1 μg/mL puromycin. Cells were plated into poly-D-lysine coated 384-well plates and cultured overnight in a 37° C. humidified tissue culture incubator under 5% CO2/[…] atmosphere. On the day of the experiment, the culture media was replaced with assay buffer (HBSS, 20 mM HEPES, 0.1% BSA) and the cells incubated at 37° C. for 1 h. Calcium-sensitive fluorescent dye (Fluo 8 No-Wash Calcium Dye, ABD Bioquest) was then added and the cells incubated for another 30 min at 37° C. followed by 15 min at room temperature while protected from the light. The cell plate and a plate of diluted compounds of Formula (I) were loaded into a fluorescent plate reader that added compounds onto the cells while measuring the fluorescence intensity of each well. The plate reader recorded fluorescence intensity at 1 second intervals for 8 min and provided the data for analysis in an Excel format. EC50 values were calculated using Prism (GraphPad) software.
A general note: Calcium assays in cells follow changes in intracellular calcium, usually with a dye or a luminescent sensor.
As usually defined, the EC50 is the concentration that produces a half-maximal response. On to `COc1cc(-c2onc(COc3cccc([C@@H](CC(=O)O)C4CC4)c3)c2OCC(C)C)c(F)cn1` [Cpd 47, (3S)-3-cyclopropyl-3-[3-[[5-(5-fluoro-2-methoxy-4-pyridyl)-4-isobutoxy-isoxazol-3-yl]methoxy]phenyl]propanoic acid], for which the concentration giving a half-maximal response (EC50) is 20 nM and 16 nM.
Under `COc1ccccc1-c1scc(COc2cccc([C@@H](CC(=O)O)C3CC3)c2)c1C1=CCCC1(C)C` [Cpd 22, (3S)-3-cyclopropyl-3-[3-[[4-(5,5-dimethylcyclopenten-1-yl)-5-(2-methoxyphenyl)-3-thienyl]methoxy]phenyl]propanoic acid] stands 47 nM and 41 nM; under `COc1ccc(F)c(-c2onc(COc3cccc([C@@H](CC(=O)O)C4CC4)c3)c2-c2sccc2C)c1` [Cpd 33, (3S)-3-cyclopropyl-3-[3-[[5-(2-fluoro-5-methoxy-phenyl)-4-(3-methyl-2-thienyl)isoxazol-3-yl]methoxy]phenyl]propanoic acid], 215 nM and 178 nM; under `COc1ccc(F)c(-c2onc(COc3cccc([C@@H](CC(=O)O)C4CC4)c3)c2OC2CCCC2)c1` [Cpd 40, (3S)-3-[3-[[4-(cyclopentoxy)-5-(2-fluoro-5-methoxy-phenyl)isoxazol-3-yl]methoxy]phenyl]-3-cyclopropyl-propanoic acid], 8 nM and 7 nM.
With `COc1cncc(-c2scc(COc3cccc([C@@H](CC(=O)O)C4CC4)c3)c2C2=CCCC2(C)C)c1` [Cpd 28, (3S)-3-cyclopropyl-3-[3-[[4-(5,5-dimethylcyclopenten-1-yl)-5-(5-methoxy-3-pyridyl)-3-thienyl]methoxy]phenyl]propanoic acid], the EC50 is 83 nM and 74 nM.
In the case of `COc1ccc(F)c(-c2onc(COc3cccc([C@@H](CC(=O)O)C4CC4)c3)c2OCC2C(C)(C)C2(C)C)c1` [Cpd 11, (3S)-3-cyclopropyl-3-[3-[[5-(2-fluoro-5-methoxy-phenyl)-4-[(2,2,3,3-tetramethylcyclopropyl)methoxy]isoxazol-3-yl]methoxy]phenyl]propanoic acid], the EC50 was determined as 58 nM.
For `COc1ccc(F)c(-c2sc(Cl)c(COc3cccc([C@@H](CC(=O)O)C4CC4)c3)c2C(C)C(F)(F)F)c1` (stereo partly drawn) [Cpd 29, (3S)-3-[3-[[2-chloro-5-(2-fluoro-5-methoxy-phenyl)-4-(2,2,2-trifluoro-1-methyl-ethyl)-3-thienyl]methoxy]phenyl]-3-cyclopropyl-propanoic acid], the EC50 was 320 nM and 211 nM.
`COc1ccc(F)c(-c2onc(COc3cccc([C@@H](CC(=O)O)C4CC4)c3)c2OCC(C)C)c1` [Cpd 39, (3S)-3-cyclopropyl-3-[3-[[5-(2-fluoro-5-methoxy-phenyl)-4-isobutoxy-isoxazol-3-yl]methoxy]phenyl]propanoic acid]: the EC50 is 5 nM and 4 nM.
For the compound `COc1ccc(F)c(-c2onc(COc3cccc([C@@H](CC(=O)O)C4CC4)c3)c2CC(C)C)c1` [Cpd 35, (3S)-3-cyclopropyl-3-[3-[[5-(2-fluoro-5-methoxy-phenyl)-4-isobutyl-isoxazol-3-yl]methoxy]phenyl]propanoic acid], the EC50 was 8 nM and 6 nM.
Under `CC1(C)CCC=C1c1c(COc2cccc([C@@H](CC(=O)O)C3CC3)c2)csc1-c1ccsc1` [Cpd 16, (3S)-3-cyclopropyl-3-[3-[[4-(5,5-dimethylcyclopenten-1-yl)-5-(3-thienyl)-3-thienyl]methoxy]phenyl]propanoic acid] stands 87 nM and 65 nM; under `COc1ccc(F)c(-c2onc(COc3cccc([C@@H](CC(=O)O)C4CC4)c3)c2-c2ccccc2)c1` [Cpd 34, (3S)-3-cyclopropyl-3-[3-[[5-(2-fluoro-5-methoxy-phenyl)-4-phenyl-isoxazol-3-yl]methoxy]phenyl]propanoic acid], 168 nM and 140 nM; under `CCOc1c(COc2cccc([C@@H](CC(=O)O)C3CC3)c2)noc1-c1cc(OC)ccc1F` [Cpd 50, (3S)-3-cyclopropyl-3-[3-[[4-ethoxy-5-(2-fluoro-5-methoxy-phenyl)isoxazol-3-yl]methoxy]phenyl]propanoic acid], 110 nM and 81 nM.
As to `COc1ccc(F)c(-c2onc(COc3cccc([C@@H](CC(=O)O)C4CC4)c3)c2OCC2CC2)c1` [Cpd 41, (3S)-3-cyclopropyl-3-[3-[[4-(cyclopropylmethoxy)-5-(2-fluoro-5-methoxy-phenyl)isoxazol-3-yl]methoxy]phenyl]propanoic acid], the EC50 was 14 nM and 12 nM.
Consider `COc1cc(-c2scc(COc3cccc([C@@H](CC(=O)O)C4CC4)c3)c2C2=CCCC2(C)C)c(F)cn1` [Cpd 27, (3S)-3-cyclopropyl-3-[3-[[4-(5,5-dimethylcyclopenten-1-yl)-5-(5-fluoro-2-methoxy-4-pyridyl)-3-thienyl]methoxy]phenyl]propanoic acid], for which the EC50 is 53 nM and 42 nM.
As for `COc1ccc(F)c(-c2onc(COc3cccc([C@@H](CC(=O)O)C4CC4)c3)c2C=C(C)C)c1` [Cpd 36, (3S)-3-cyclopropyl-3-[3-[[5-(2-fluoro-5-methoxy-phenyl)-4-(2-methylprop-1-enyl)isoxazol-3-yl]methoxy]phenyl]propanoic acid], the EC50 is 30 nM and 26 nM.
Turning to `COc1cc(-c2scc(COc3cccc([C@@H](CC(=O)O)C4CC4)c3)c2C2=CCCC2(C)C)ccn1` [Cpd 31, (3S)-3-cyclopropyl-3-[3-[[4-(5,5-dimethylcyclopenten-1-yl)-5-(2-methoxy-4-pyridyl)-3-thienyl]methoxy]phenyl]propanoic acid], the EC50 was 258 nM and 162 nM.
`COc1ccc(F)c(-c2snc(COc3cccc([C@@H](CC(=O)O)C4CC4)c3)c2C2=CCCC2(C)C)c1` [Cpd 30, (3S)-3-cyclopropyl-3-[3-[[4-(5,5-dimethylcyclopenten-1-yl)-5-(2-fluoro-5-methoxy-phenyl)isothiazol-3-yl]methoxy]phenyl]propanoic acid]: the EC50 was 32 nM and 27 nM.
As to `COc1ccc(F)c(-c2scc(COc3cccc([C@@H](CC(=O)O)C4CC4)c3)c2C2=CCCC2(C)C)c1` [Cpd 13, (3S)-3-cyclopropyl-3-[3-[[4-(5,5-dimethylcyclopenten-1-yl)-5-(2-fluoro-5-methoxy-phenyl)-3-thienyl]methoxy]phenyl]propanoic acid], the concentration giving a half-maximal response (EC50) is 53 nM and 51 nM and 22 nM and 13 nM and 87 nM and 71 nM.
Consider `COc1cc(OC)cc(-c2scc(COc3cccc([C@@H](CC(=O)O)C4CC4)c3)c2C2=CCCC2(C)C)c1` [Cpd 23, (3S)-3-cyclopropyl-3-[3-[[5-(3,5-dimethoxyphenyl)-4-(5,5-dimethylcyclopenten-1-yl)-3-thienyl]methoxy]phenyl]propanoic acid], for which the EC50 is 16 nM and 15 nM.
Take `COc1ccc(F)c(-c2onc(COc3cccc([C@@H](CC(=O)O)C4CC4)c3)c2C2CC2)c1` [Cpd 37, (3S)-3-cyclopropyl-3-[3-[[4-cyclopropyl-5-(2-fluoro-5-methoxy-phenyl)isoxazol-3-yl]methoxy]phenyl]propanoic acid]: the EC50 was 65 nM and 55 nM.
Turning to `COc1ccc(F)c(-c2onc(COc3cccc([C@@H](CC(=O)O)C4CC4)c3)c2OCCC(F)(F)F)c1` [Cpd 49, (3S)-3-cyclopropyl-3-[3-[[5-(2-fluoro-5-methoxy-phenyl)-4-(3,3,3-trifluoropropoxy)isoxazol-3-yl]methoxy]phenyl]propanoic acid], the EC50 was 67 nM and 56 nM.
Take `CC1(C)CCC=C1c1c(COc2cccc([C@@H](CC(=O)O)C3CC3)c2)csc1-c1cccc2occc12` [Cpd 25, (3S)-3-[3-[[5-(benzofuran-4-yl)-4-(5,5-dimethylcyclopenten-1-yl)-3-thienyl]methoxy]phenyl]-3-cyclopropyl-propanoic acid]: the EC50 is 101 nM and 68 nM.
